Read-outs that look alike come from different tables or passages of the source.
What was measured:
SiHa = experiment: MTT antiproliferative assay, SiHa; format: cell-based, human; conditions: MTT, 72 h, cervical cancer cells, read-out: IC50 Values (μM) ± SEM SiHa
Protocol: (§1) The growth-inhibitory effects of the compounds were determined by MTT (3-(4,5-dimethylthiazol-2-yl)-2,5-diphenyltetrazolium bromide) assay on selected cell lines, including HeLa and SiHa (cervical cancers), MDA-MB-231 and MCF-7 (breast cancers), and A2780 ovarian cancer cells. All cell lines were purchased from the European Collection of Cell Cultures (Salisbury, UK) except SiHa, which was obtained from the American Tissue Culture Collection (Manassas, VA, USA). The cells were kept in minimum essential medium supplemented with 10% fetal bovine serum, 1% non-essential amino acids, and 1% penicillin-streptomycin-amphotericin-B at 37 °C in a humidified atmosphere containing 5% CO2. Media and supplements were obtained from Lonza Group Ltd., (Basel, Switzerland). Cancer cells were seeded onto 96-well plates (5000 cells/well), after an overnight incubation the test compounds were added in six concentrations (0.1, 0.3, 1.0, 3.0, 10.0, 30.0 µM) and incubated for 72 h under cell-culture condition. After the incubation, 20 μL of 5 mg/mL MTT solution was added to each well and incubated for a further 4 h. The medium was removed, and the precipitated formazan crystals were dissolved in DMSO for 30 min under shaking at 37 °C. The absorbance was measured at 545 nm with a microplate reader. Untreated cells were included as controls. Calculations were performed by means of the GraphPad Prism 5.01 software (GraphPad Software Inc., San Diego, CA, USA). At least two independent determinations were performed with 5 parallel wells for each condition.

HeLa = experiment: MTT antiproliferative assay, HeLa; format: cell-based, human; conditions: MTT, 72 h, cervical cancer cells, read-out: IC50 Values (μM) ± SEM HeLa
Protocol: as §1

FdxT = experiment: FRET-melting, duplex control FdxT; format: binding; conditions: ligand 2 μM, DNA 0.2 μM, 10 mM KCl, 90 mM LiCl, pH 7.2, hairpin duplex
Protocol: (§2) FRET-melting experiments were conducted on a Stratagene MX3005P (Thermo Fisher Scientific, Illkirch-Graffenstaden, France) real-time PCR equipment in 96-well plates on the DNA sequences reported in Table 4. Experiments were performed in 10 mM lithium cacodylate buffer (pH 7.2) and either 10 mM KCl and 90 mM LiCl (FK-RAST, FBCL-2T, F21T, and FdxT) or 1 mM KCl and 99 mM LiCl (Fc-MYCT) concentrations, depending on the Tm of the G4s alone. The DNA concentration was 0.2 µM. […] Data are presented as an average of three independent measurements, each conducted in duplicate conditions (λexc = 492 nm, λem = 516 nm, T interval = 25–95 °C, ramp: 25 °C for 5 min, then 1 °C/min, measurements every 1 °C, 8× magnification of the fluorescence signal).

FK-RAST = experiment: FRET-melting, FK-RAST; format: binding; conditions: ligand 2 μM, DNA 0.2 μM, 10 mM KCl, 90 mM LiCl, pH 7.2
Protocol: as §2

[1] = system: human telomeric sequence F21T; experiment: FRET-melting, F21T; format: binding; conditions: ligand 2 μM, DNA 0.2 μM, 10 mM KCl, 90 mM LiCl, pH 7.2
Protocol: as §2

K562 = experiment: MTS cell proliferation assay, K562; format: cell-based, human; conditions: MTS, 3-day incubation, leukemia cells, read-out: IC50 Values (μM) ± SEM K562
Protocol: The human leukemic cell line K562 was grown in RPMI 1640 medium (Life Technology-Invitrogen by Thermo Fisher Scientific, Saint-Aubin, France) supplemented with 10% fetal calf serum (FCS), antibiotics (100 U/mL penicillin, 100 µg/mL streptomycin), and L-glutamine, (Eurobio, Les Ulis, France) at 37 °C, 5% CO2 in air. The MTS cell proliferation assay (Promega, Charbonnières-les-Bains, France) is a colorimetric assay system, which measures the transformation of a tetrazolium component (MTS) into formazan produced by the mitochondria of viable cells. Cells were washed twice in PBS (Phosphate Buffer Saline) and plated in quadruplicate into microtiter-plate wells in 100 μL culture media with or without our various compounds at increasing concentrations (0, 1, 5, 10, 20, and 50 μM) for 1, 2, and 3 days. After 3 h of incubation at 37 °C with 20 μL MTS/well, the plates were read using an ELISA microplate reader (Thermo, Electrocorporation, Waltham, MA, USA) at 490 nm. The amount of color produced was directly proportional to the number of viable cells. The results are expressed as the concentrations inhibiting cell growth by 50% after a 3-day incubation period. The 50% cytotoxic concentrations (CC50) were determined by linear regression analysis, expressed in μM ± SD (Microsoft Excel).

A2780 = experiment: MTT antiproliferative assay, A2780; format: cell-based, human; conditions: MTT, 72 h, ovarian cancer cells, read-out: IC50 Values (μM) ± SEM A2780
Protocol: as §1

Fc-MYCT = experiment: FRET-melting, Fc-MYCT; format: binding; conditions: ligand 2 μM, DNA 0.2 μM, K+ conditions, pH 7.2
Protocol: as §2

FBCL-2T = experiment: FRET-melting, FBCL-2T; format: binding; conditions: ligand 2 μM, DNA 0.2 μM, 10 mM KCl, 90 mM LiCl, pH 7.2
Protocol: as §2

MDA-MB-231 = experiment: MTT antiproliferative assay, MDA-MB-231; format: cell-based, human; conditions: MTT, 72 h, breast cancer cells, read-out: IC50 Values (μM) ± SEM MDA-MB-231
Protocol: as §1

MCF-7 = experiment: MTT antiproliferative assay, MCF-7; format: cell-based, human; conditions: MTT, 72 h, breast cancer cells, read-out: IC50 Values (μM) ± SEM MCF-7
Protocol: as §1

| Compound | IC50 (SiHa) [µM] | IC50 (HeLa) [µM] | ΔT1/2 (°C) FdxT (FdxT) [°C] | ΔT1/2 (°C) FK-RAST (FK-RAST) [°C] | ΔT1/2 (°C) F21T [1] [°C] | IC50 (K562) [µM] | IC50 (A2780) [µM] | ΔT1/2 (°C) Fc-MYCT (Fc-MYCT) [°C] | ΔT1/2 (°C) FBCL-2T (FBCL-2T) [°C] | IC50 (MDA-MB-231) [µM] | IC50 (MCF-7) [µM] | IC50 (SiHa; Homo sapiens, SiHa) [µM] | IC50 (HeLa; Homo sapiens, HeLa) [µM] | IC50 (K562; Homo sapiens, K562, 72 h) [µM] | IC50 (A2780; Homo sapiens, A2780) [µM] | IC50 (MDA-MB-231; Homo sapiens, MDA-MB-231, 72 h) [µM] | IC50 (MCF-7; Homo sapiens, MCF7, 72 h) [µM] |
| --- | --- | --- | --- | --- | --- | --- | --- | --- | --- | --- | --- | --- | --- | --- | --- | --- | --- |
| CC1CN(CCCNCc2ccc(-c3cc(-c4ccc(CNCCCN5CCNC(C)C5)cc4)c4cc(-c5ccccc5)ccc4n3)cc2)CCN1 (stereo not drawn) [Compound 13c, 2,4-bis{4-[(4-(3-methylpiperazin-1-yl)propyl)aminomethyl]phenyl}-6-phenylquinoline] | 1.45 ± 0.13 | 1.3 ± 0.06 | 0.1 ± 0.2 | 14.5 ± 0.8 | 11.3 ± 0.9 | 34 ± 0.7 | 1.58 ± 0.1 | 6.8 ± 1.4 | 7.5 ± 0.5 | 1.33 ± 0.13 | 0.86 ± 0.38 | – | – | – | – | – | – |
| CN(C)CCCCNCc1ccc(-c2cc(-c3ccc(CNCCCCN(C)C)cc3)c3cc(-c4ccccc4)ccc3n2)cc1 [Compound 13b, 2,4-bis{4-[(4-dimethylaminobutyl)aminomethyl]phenyl}-6-phenylquinoline] | – | – | 1.5 ± 0.6 | 19.6 ± 3.5 | 13.6 ± 2.9 | – | – | 13.8 ± 3.0 | 11.1 ± 2.6 | – | – | 1.76 ± 0.61 | 3.58 ± 0.18 | 13 ± 0.4 | 6.49 ± 1.76 | 3.68 ± 0.8 | 3.03 ± 0.64 |
| CC1CN(CCCNCc2ccc(-c3nc(-c4ccc(CNCCCN5CCNC(C)C5)cc4)c4cccc(-c5ccccc5)c4n3)cc2)CCN1 (stereo not drawn) [Compound 12m, 2,4-bis{4-[(4-(3-methylpiperazin-1-yl)propyl)aminomethyl]phenyl}-8-phenylquinazoline] | 0.88 ± 0.14 | 1.17 ± 0.23 | 2.2 ± 0.2 | 18.2 ± 0.6 | 23.3 ± 0.7 | 7 ± 0.2 | 2.1 ± 0.48 | 14.6 ± 0.9 | 15.5 ± 0.3 | 2 ± 0.45 | 1.22 ± 0.19 | – | – | – | – | – | – |
| CN(C)CCCNCc1ccc(-c2nc(-c3ccc(CNCCCN(C)C)cc3)c3cccc(-c4ccccc4)c3n2)cc1 [Compound 12k, 2,4-bis{4-[(3-dimethylaminopropyl)aminomethyl]phenyl}-8-phenylquinazoline] | – | – | 0.8 ± 0.1 | 13.0 ± 0.4 | – | – | – | 9.9 ± 1.4 | 9.5 ± 0.2 | – | 1.24 ± 0.14 | 1.01 ± 0.27 | 1.19 ± 0.24 | 7 ± 0.1 | 1.34 ± 0.14 | 1.36 ± 0.06 | 1.12 to 1.24 |
| CN(C)CCCCCNCc1ccc(-c2nc(-c3ccc(CNCCCCCN(C)C)cc3)c3ccc(-c4ccccc4)cc3n2)cc1 [Compound 12h, 2,4-bis{4-[(5-dimethylaminopentyl)aminomethyl]phenyl}-7-phenylquinazoline] | – | – | 2.7 ± 1.0 | 28.6 ± 2.1 | 28.1 ± 2.3 | – | – | 18.7 ± 0.2 | 18.2 ± 1.7 | – | – | 0.75 ± 0.01 | 2.31 ± 0.76 | 13 ± 0.2 | 1.43 ± 0.07 | 1.1 ± 0.38 | 1.19 ± 0.27 |
| CN(C)CCCCNCc1ccc(-c2nc(-c3ccc(CNCCCCN(C)C)cc3)c3cc(-c4ccccc4)ccc3n2)cc1 [Compound 12c, 2,4-bis{4-[(4-dimethylaminobutyl)aminomethyl]phenyl}-6-phenylquinazoline] | – | – | 3.8 ± 0.8 | 24.5 ± 0.7 | 28.0 ± 0.4 | – | – | 17.7 ± 0.8 | 16.4 ± 0.4 | – | – | 0.76 ± 0.01 | 2.21 ± 0.86 | 7 ± 0.2 | 2.04 ± 0.54 | 1.07 ± 0.42 | 1.44 ± 0.03 |
| CN(C)CCCCNCc1ccc(-c2nc(-c3ccc(CNCCCCN(C)C)cc3)c3cccc(-c4ccccc4)c3n2)cc1 [Compound 12l, 2,4-bis{4-[(4-dimethylaminobutyl)aminomethyl]phenyl}-8-phenylquinazoline] | – | – | 2.9 ± 0.2 | 18.7 ± 0.8 | 24.9 ± 0.3 | – | – | 14.2 ± 1.1 | 17.2 ± 1.2 | – | – | 1.14 ± 0.51 | 1.39 ± 0.16 | 7 ± 0.2 | 2.08 ± 0.48 | 1.55 ± 0.12 | 1.45 ± 0.02 |
| 2,4-bis{4-[(4-(3-methylpiperazin-1-yl)propyl)aminomethyl]phenyl}-6-phenylquinazoline [Compound 12d] | 1.28 ± 0.27 | 1.32 ± 0.02 | 0.5 ± 0.3 | 15.5 ± 0.5 | 15.8 ± 1.2 | 17 ± 0.4 | 1.74 ± 0.11 | 8.4 ± 0.9 | 9.7 ± 0.06 | 1.44 ± 0.17 | 1.01 ± 0.3 | – | – | – | – | – | – |
| CN1CCN(CCCCNCc2ccc(-c3nc(-c4ccc(CNCCCCN5CCN(C)CC5)cc4)c4cccc(-c5ccccc5)c4n3)cc2)CC1 [Compound 12n, 2,4-bis{4-[(4-(4-methylpiperazin-1-yl)butyl)aminomethyl]phenyl}-8-phenylquinazoline] | – | – | 2.4 ± 0.7 | 18.0 ± 2.5 | 20.7 ± 3.1 | – | – | 17.0 ± 2.0 | 12.0 ± 2.0 | – | – | 1.89 ± 0.74 | 3.51 ± 0.17 | 14 ± 0.3 | 7.1 ± 1.15 | 3.94 ± 0.54 | 4.17 ± 0.5 |

Reference: publication PMC10819771 (Pharmaceuticals, 2023)
